Patent US12091426B2, “Bifunctional degraders of hematopoietic progenitor kinase and therapeutic uses thereof” (Nurix Therapeutics, Inc., priority 2021, dated 2024)

Target: T1, HPK1 (Homo sapiens, UniProt Q92918)
T1 construct: A HiBiT tag was introduced by CRISPR on the N terminus of HPK1 in Jurkat cells; host or cells: Jurkat cells (ATCC TIB-152), monoclonal line with CRISPR knock-in of HiBiT at the endogenous HPK1 locus
Assay: HPK1 Cellular HiBit Degradation Assay
Format: cell-based
Conditions: HiBiT HPK1 Jurkat cells, 24 hrs; for DC50: concentration at which 50% of HPK1 was remaining, read-out: DC50 Category; for Dmax: Jurkat, maximum degradation vs DMSO vehicle control, read-out: Dmax Category
Outline: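 Degraders are dosed in an 11-point series (10 uM to 0.1 nM final) onto Jurkat cells carrying an N-terminal HiBiT tag on endogenous HPK1. After 24 hrs at 37° C, lysis-based HiBiT luminescence quantifies remaining HPK1 relative to vehicle, and curve fitting gives DC50 and Dmax.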

T1 sequence (Q92918 whole entry): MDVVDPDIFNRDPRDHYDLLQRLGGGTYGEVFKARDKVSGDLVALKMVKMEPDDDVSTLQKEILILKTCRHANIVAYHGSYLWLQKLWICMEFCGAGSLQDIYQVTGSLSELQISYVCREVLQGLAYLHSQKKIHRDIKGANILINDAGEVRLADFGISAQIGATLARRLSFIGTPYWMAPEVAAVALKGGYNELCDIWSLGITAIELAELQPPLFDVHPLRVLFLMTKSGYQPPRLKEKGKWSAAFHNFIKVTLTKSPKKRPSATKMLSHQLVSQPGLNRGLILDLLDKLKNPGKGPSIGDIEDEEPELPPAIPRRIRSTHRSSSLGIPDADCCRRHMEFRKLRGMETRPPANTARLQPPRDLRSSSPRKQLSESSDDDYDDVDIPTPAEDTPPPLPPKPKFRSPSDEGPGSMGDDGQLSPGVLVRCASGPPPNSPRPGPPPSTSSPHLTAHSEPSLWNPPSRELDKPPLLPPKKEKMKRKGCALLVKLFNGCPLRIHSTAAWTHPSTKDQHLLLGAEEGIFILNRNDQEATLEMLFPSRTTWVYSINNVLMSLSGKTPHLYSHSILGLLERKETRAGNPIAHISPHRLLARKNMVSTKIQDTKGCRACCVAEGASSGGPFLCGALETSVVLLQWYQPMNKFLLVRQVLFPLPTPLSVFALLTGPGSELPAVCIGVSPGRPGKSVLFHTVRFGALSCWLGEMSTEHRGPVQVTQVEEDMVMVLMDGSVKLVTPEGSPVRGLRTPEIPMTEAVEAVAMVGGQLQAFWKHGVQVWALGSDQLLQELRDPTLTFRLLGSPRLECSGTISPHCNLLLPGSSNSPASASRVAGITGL

Row | Structure (SMILES) | DC50 [nM] | Dmax [%]
1 | CC(C)n1cnc2cc(-c3ccc4c(c3)N([C@H]3C[C@@H](N5C6CCC5COC6)C3)C(=O)C43CCN(C(=O)C4(C)CCN(C(=O)C5CCN(c6ccc(C7CCC(=O)NC7=O)cn6)CC5)CC4)CC3)nc(NC3CC3)c21 (mixture of isomers) [Example 215, (3RS)-3-(6-{4-[4-({6-[4-(cyclopropylamino)-3-(propan-2-yl)-3H-imidazo[4,5-c]pyridin-6-yl]-2-oxo-1-[(1S,3S)-3-{3-oxa-8-azabicyclo[3.2.1]octan-8-yl}cyclobutyl]-1,2-dihydrospiro[indole-3,4′-piperidin]-1′-yl}carbonyl)-4-methylpiperidine-1-carbonyl]piperidin-1-yl}pyridin-3-yl)piperidine-2,6-dione] | < 100 | 70 to 85
2 | CC(C)n1cnc2cc(-c3ccc4c(c3)N([C@H]3C[C@@H](N5CCCCC5)C3)C(=O)C43CCN(C(=O)[C@@H]4CCN(C(=O)[C@H]5CC[C@H](N(C)c6cccc7c6C(=O)N(C6CCC(=O)NC6=O)C7=O)CC5)C4)CC3)nc(NC3CC3)c21 (mixture of isomers) [Example 129, 2-[(3RS)-2,6-dioxopiperidin-3-yl]-4-{methyl[(1R,4R)-4-[(3R)-3-({6-[4-(cyclopropylamino)-3-(propan-2-yl)-3H-imidazo[4,5-c]pyridin-6-yl]-2-oxo-1-[(1S,3S)-3-(piperidin-1-yl)cyclobutyl]-1,2-dihydrospiro[indole-3,4′-piperidin]-1′-yl}carbonyl)pyrrolidine-1-carbonyl]cyclohexyl]amino}-2,3-dihydro-1H-isoindole-1,3-dione] | 100 to 500 | 70 to 85
3 | CC(C)n1cnc2cc(-c3ccc4c(c3)N([C@H]3C[C@@H](N5CCCCC5)C3)C(=O)C43CCN(C(=O)[C@@H]4CCN(C(=O)[C@H]5CC[C@H](Oc6ccc(C7CCC(=O)NC7=O)cc6)CC5)C4)CC3)nc(NC3CC3)c21 (stereo partly drawn) [Example 13, 3-(4-{[(1R,4R)-4-[(3R)-3-({6-[4-(cyclopropylamino)-3-(propan-2-yl)-3H-imidazo[4,5-c]pyridin-6-yl]-2-oxo-1-[(1S,3S)-3-(piperidin-1-yl)cyclobutyl]-1,2-dihydrospiro[indole-3,4′-piperidin]-1′-yl}carbonyl)pyrrolidine-1-carbonyl]cyclohexyl]oxy}phenyl)piperidine-2,6-dione] | < 100 | > 85
4 | CC(C)n1cnc2cc(-c3ccc4c(c3)N([C@H]3C[C@@H](N5CC6CCC(C5)O6)C3)C(=O)C43CCN(C(=O)C4(C)CCN(C(=O)C5CCN(c6ccc(C7CCC(=O)NC7=O)cc6)CC5)CC4)CC3)nc(NC3CC3)c21 (mixture of isomers) [Example 197] | 100 to 500 | 50 to 70
5 | CC(C)n1cnc2cc(-c3ccc4c(c3)N([C@H]3C[C@@H](N5CCCCC5)C3)C(=O)C43CCN(C(=O)C4C5CN(C(=O)C6CCN(c7ccc(C8CCC(=O)NC8=O)cn7)CC6)CC54)CC3)nc(NC3CC3)c21 (mixture of isomers) [Example 38, (3RS)-3-(6-{4-[6-({6-[4-(cyclopropylamino)-3-(propan-2-yl)-3H-imidazo[4,5-c]pyridin-6-yl]-2-oxo-1-[(1S,3S)-3-(piperidin-1-yl)cyclobutyl]-1,2-dihydrospiro[indole-3,4′-piperidin]-1′-yl}carbonyl)-3-azabicyclo[3.1.0]hexane-3-carbonyl]piperidin-1-yl}pyridin-3-yl)piperidine-2,6-dione] | 100 to 500 | 50 to 70
6 | CC(C(=O)N1CCN(C(=O)C2CCN(c3ccc(C4CCC(=O)NC4=O)cn3)CC2)CC1)N1CCC2(CC1)C(=O)N([C@H]1C[C@@H](N3CCCCC3)C1)c1cc(-c3cc4ncn(C(C)C)c4c(NC4CC4)n3)ccc12 (stereo partly drawn) [Example 172, 3-(6-{4-[4-(2-{6-[4-(cyclopropylamino)-3-(propan-2-yl)-3H-imidazo[4,5-c]pyridin-6-yl]-2-oxo-1-[(1S,3S)-3-(piperidin-1-yl)cyclobutyl]-1,2-dihydrospiro[indole-3,4′-piperidin]-1′-yl}propanoyl)piperazine-1-carbonyl]piperidin-1-yl}pyridin-3-yl)piperidine-2,6-dione] | < 100 | > 85
7 | CC(C)n1cnc2cc(-c3ccc4c(c3)N([C@H]3C[C@@H](N5CCCCC5)C3)C(=O)C43CCN(C(=O)C4CCN(C(=O)C5CCN(c6ccc(N7CCC(=O)NC7=O)cc6)CC5)CC4)CC3)nc(NC3CC3)c21 [Example 69, 1-(4-{4-[4-({6-[4-(cyclopropylamino)-3-(propan-2-yl)-3h-imidazo[4,5-c]pyridin-6-yl]-2-oxo-1-[(1S,3S)-3-(piperidin-1-yl)cyclobutyl]-1,2-dihydrospiro[indole-3,4′-piperidin]-1′-yl}carbonyl)piperidine-1-carbonyl]piperidin-1-yl}phenyl)-1,3-diazinane-2,4-dione] | < 100 | 70 to 85

The remaining lines, values ahead:

Row | DC50 [nM] | Dmax [%] | Structure (SMILES)
8 | 100 to 500 | 70 to 85 | CC(C)n1cnc2cc(-c3ccc4c(c3)N([C@H]3C[C@@H](N5CCCCC5)C3)C(=O)C43CCN(C(=O)c4cc(C(=O)N5CCN(c6ccc7c(c6)C(=O)N(C6CCC(=O)NC6=O)C7=O)CC5)n(C)n4)CC3)nc(Nc3ccccc3F)c21 (mixture of isomers) [Example 146, 2-[(3RS)-2,6-dioxopiperidin-3-yl]-5-(4-{3-[(6-{4-[(2-fluorophenyl)amino]-3-(propan-2-yl)-3H-imidazo[4,5-c]pyridin-6-yl}-2-oxo-1-[(1S,3S)-3-(piperidin-1-yl)cyclobutyl]-1,2-dihydrospiro[indole-3,4′-piperidin]-1′-yl)carbonyl]-1-methyl-1H-pyrazole-5-carbonyl}piperazin-1-yl)-2,3-dihydro-1H-isoindole-1,3-dione]
9 | < 100 | 70 to 85 | CC(C(=O)N1CCC2(CC1)C(=O)N([C@H]1C[C@@H](N3CCCCC3)C1)c1cc(-c3cc4ncn(C(C)C)c4c(NC4CC4)n3)ccc12)C1CCN(C(=O)C2CCN(c3ccc(C4CCC(=O)NC4=O)cn3)CC2)CC1 (mixture of isomers) [Example 187, (3RS)-3-(6-{4-[4-(1-{6-[4-(cyclopropylamino)-3-(propan-2-yl)-3H-imidazo[4,5-c]pyridin-6-yl]-2-oxo-1-[(1S,3S)-3-(piperidin-1-yl)cyclobutyl]-1,2-dihydrospiro[indole-3,4′-piperidin]-1′-yl}-1-oxopropan-2-yl)piperidine-1-carbonyl]piperidin-1-yl}pyridin-3-yl)piperidine-2,6-dione]
10 | < 100 | 50 to 70 | CC(C)n1cnc2cc(-c3ccc4c(c3)N([C@H]3C[C@@H](N5CCCCC5)C3)C(=O)C43CCN(C(=O)[C@H]4CCN(C(=O)[C@H]5CC[C@@H](Nc6cccc7c6n(C)c(=O)n7C6CCC(=O)NC6=O)CC5)C4)CC3)nc(Nc3ccccc3F)c21 (mixture of isomers) [Example 143, (3RS)-3-(3-methyl-2-oxo-4-{[(1R,4R)-4-[(3S)-3-[(6-{4-[(2-fluorophenyl)amino]-3-(propan-2-yl)-3H-imidazo[4,5-c]pyridin-6-yl}-2-oxo-1-[(1S,3S)-3-(piperidin-1-yl)cyclobutyl]-1,2-dihydrospiro[indole-3,4′-piperidin]-1′-yl)carbonyl]pyrrolidine-1-carbonyl]cyclohexyl]amino}-2,3-dihydro-1H-1,3-benzodiazol-1-yl)piperidine-2,6-dione]
11 | < 100 | 50 to 70 | CC(C)n1cnc2cc(-c3ccc4c(c3)N([C@H]3C[C@@H](N5CCCCC5)C3)C(=O)C43CCN(C(=O)C45CN(C(=O)C6CCN(c7ccc(C8CCC(=O)NC8=O)cn7)CC6)CC4C5(F)F)CC3)nc(NC3CC3)c21 (mixture of isomers) [Example 281, (3RS)-3-(6-{4-[1-({6-[4-(cyclopropylamino)-3-(propan-2-yl)-3H-imidazo[4,5-c]pyridin-6-yl]-2-oxo-1-[(1S,3S)-3-(piperidin-1-yl)cyclobutyl]-1,2-dihydrospiro[indole-3,4′-piperidin]-1′-yl}carbonyl)-6,6-difluoro-3-azabicyclo[3.1.0]hexane-3-carbonyl]piperidin-1-yl}pyridin-3-yl)piperidine-2,6-dione]
12 | 100 to 500 | 50 to 70 | CC(C)n1cnc2cc(-c3ccc4c(c3)N([C@H]3C[C@@H](N5CCCCC5)C3)C(=O)C43CCN(C(=O)c4cccc(C5CCN(C(=O)C6CCN(c7ccc(C8CCC(=O)NC8=O)cn7)CC6)CC5)c4)CC3)nc(NC3CC3)c21 (mixture of isomers) [Example 301, (3RS)-3-[6-(4-{4-[3-({6-[4-(cyclopropylamino)-3-(propan-2-yl)-3H-imidazo[4,5-c]pyridin-6-yl]-2-oxo-1-[(1S,3S)-3-(piperidin-1-yl)cyclobutyl]-1,2-dihydrospiro[indole-3,4′-piperidin]-1′-yl}carbonyl)phenyl]piperidine-1-carbonyl}piperidin-1-yl)pyridin-3-yl]piperidine-2,6-dione]
13 | < 100 | 70 to 85 | CC(C)n1cnc2cc(-c3ccc4c(c3)N([C@H]3C[C@@H](N5CCCCC5)C3)C(=O)C43CCN(C(=O)C4CCN(C(=O)C5CCN(c6ccc(C7CCC(=O)NC7=O)cn6)CC5)C5(CCC5)C4)CC3)nc(NC3CC3)c21 (mixture of isomers) [Example 270, (3RS)-3-(6-{4-[8-({6-[4-(cyclopropylamino)-3-(propan-2-yl)-3H-imidazo[4,5-c]pyridin-6-yl]-2-oxo-1-[(1S,3S)-3-(piperidin-1-yl)cyclobutyl]-1,2-dihydrospiro[indole-3,4′-piperidin]-1′-yl}carbonyl)-5-azaspiro[3.5]nonane-5-carbonyl]piperidin-1-yl}pyridin-3-yl)piperidine-2,6-dione]
